Assay results published in publication PMC7865522, “Analyzing Kinase Similarity in Small Molecule and Protein Structural Space to Explore the Limits of Multi-Target Screening” (Molecules, 2021).
Several values for one entry are separate records, joined by “and”; a condition that tells them apart may be missing. Equal values may be shown once.

How the values were obtained:
Test in all cases: HTRF KinEASE-TK IC50 determination (Rauh Lab)
Type in all cases: biochemical
[1] = molecular target: T1, EGFR-wt (Homo sapiens, UniProt P00533); settings: ATP at Km (9.5 µM), racemate tested, read-out: IC50 ± s.d., EGFR
T1 construct: purchased Carna Biosciences lot13CBS-0005K
T1 sequence (P00533 25-1210): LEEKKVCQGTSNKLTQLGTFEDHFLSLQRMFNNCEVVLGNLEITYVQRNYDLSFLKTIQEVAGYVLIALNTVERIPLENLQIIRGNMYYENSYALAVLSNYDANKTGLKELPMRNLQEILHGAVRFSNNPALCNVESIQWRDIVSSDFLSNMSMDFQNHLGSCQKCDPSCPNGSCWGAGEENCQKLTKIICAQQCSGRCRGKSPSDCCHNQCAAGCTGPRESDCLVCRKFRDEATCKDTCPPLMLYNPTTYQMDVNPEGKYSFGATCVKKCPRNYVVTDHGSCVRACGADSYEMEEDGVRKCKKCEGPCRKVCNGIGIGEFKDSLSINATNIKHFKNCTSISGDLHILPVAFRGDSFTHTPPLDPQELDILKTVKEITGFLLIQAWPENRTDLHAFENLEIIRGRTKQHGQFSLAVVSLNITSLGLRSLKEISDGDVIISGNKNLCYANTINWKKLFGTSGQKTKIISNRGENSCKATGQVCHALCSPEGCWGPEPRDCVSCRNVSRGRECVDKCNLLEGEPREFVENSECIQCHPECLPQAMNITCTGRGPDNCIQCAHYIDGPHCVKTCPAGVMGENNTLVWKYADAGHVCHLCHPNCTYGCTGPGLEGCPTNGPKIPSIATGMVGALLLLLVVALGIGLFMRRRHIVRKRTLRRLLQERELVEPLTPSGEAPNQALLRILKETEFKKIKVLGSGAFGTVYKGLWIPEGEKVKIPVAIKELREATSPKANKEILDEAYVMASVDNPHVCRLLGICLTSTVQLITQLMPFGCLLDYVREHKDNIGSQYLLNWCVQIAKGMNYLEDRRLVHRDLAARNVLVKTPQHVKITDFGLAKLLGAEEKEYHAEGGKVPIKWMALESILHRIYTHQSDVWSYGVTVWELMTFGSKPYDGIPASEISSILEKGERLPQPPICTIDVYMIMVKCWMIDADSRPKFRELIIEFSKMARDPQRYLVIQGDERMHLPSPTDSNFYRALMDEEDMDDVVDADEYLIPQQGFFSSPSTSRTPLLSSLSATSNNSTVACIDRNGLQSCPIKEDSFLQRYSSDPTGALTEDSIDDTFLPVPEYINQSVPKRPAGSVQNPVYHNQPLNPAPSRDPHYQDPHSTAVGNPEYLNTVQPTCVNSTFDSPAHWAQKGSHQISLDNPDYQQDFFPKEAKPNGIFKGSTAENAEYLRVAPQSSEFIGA
Protocol: (§1) IC 50 determinations for EGFR, its mutants and ErbB2-insYVMA (Carna Biosciences, lot13CBS-0005K for EGFR-wt; Carna, lot13CBS-0537B for EGFR-L858R; Carna, lot12CBS-0765B for EGFR-L858R/T790M; and ProQinase, lot1525-0000-1/003 for ErbB2-insYVMA) were performed with the HTRF KinEASE-TK assay from Cisbio according to the manufacturer’s instructions. Briefly, the amount of kinase in each reaction well was set to 0.60 ng EGFR-wt (0.67 nM), 0.10 ng EGFR-L858R (0.11 nM), 0.07 ng EGFR-T790M/L858R (0.08 nM), or 0.01 ng ErbB2-insYVMA (0.01 nM). An artificial substrate peptide (TK-substrate from Cisbio) was phosphorylated by EGFR or ErbB2. After completion of the reaction (reaction times: 25 min for EGFR-wt, 15 min for L858R, 20 min for L858R/T790M, and 40 min for ErbB2-insYVMA), the reaction was stopped by addition of buffer containing EDTA as well as an anti-phosphotyrosine antibody labeled with europium cryptate and streptavidin labeled with the fluorophore XL665. FRET between europium cryptate and XL665 was measured after an additional hour of incubation to quantify the phosphorylation of the substrate peptide. […] Kinase and inhibitor were preincubated for 30 min before the reaction was started by addition of ATP and substrate peptide. An EnVision multimode plate reader (Perkin Elmer) was used to measure the fluorescence of the samples at 620 nm (Eu ^3+ -labeled antibody) and 665 nm (XL665-labeled streptavidin) 50 µs after excitation at 320 nm. The quotient of both intensities for reactions made with eight different inhibitor concentrations was then analyzed using the Quattro Software Suite for IC 50 -determination. Each reaction was performed in duplicate, and at least three independent determinations of each IC 50 were made.

[2] = molecular target: T2, ErbB2-insYVMA (Homo sapiens, UniProt P04626, INS775YVMA); settings: ATP at Km (6 µM); racemate tested; read-out: IC50 ± s.d., ErbB2insYVMA
T2 construct: purchased ProQinase lot1525-0000-1/003
T2 sequence (P04626 with tags, fused parts or gaps INS775YVMA limits assumed): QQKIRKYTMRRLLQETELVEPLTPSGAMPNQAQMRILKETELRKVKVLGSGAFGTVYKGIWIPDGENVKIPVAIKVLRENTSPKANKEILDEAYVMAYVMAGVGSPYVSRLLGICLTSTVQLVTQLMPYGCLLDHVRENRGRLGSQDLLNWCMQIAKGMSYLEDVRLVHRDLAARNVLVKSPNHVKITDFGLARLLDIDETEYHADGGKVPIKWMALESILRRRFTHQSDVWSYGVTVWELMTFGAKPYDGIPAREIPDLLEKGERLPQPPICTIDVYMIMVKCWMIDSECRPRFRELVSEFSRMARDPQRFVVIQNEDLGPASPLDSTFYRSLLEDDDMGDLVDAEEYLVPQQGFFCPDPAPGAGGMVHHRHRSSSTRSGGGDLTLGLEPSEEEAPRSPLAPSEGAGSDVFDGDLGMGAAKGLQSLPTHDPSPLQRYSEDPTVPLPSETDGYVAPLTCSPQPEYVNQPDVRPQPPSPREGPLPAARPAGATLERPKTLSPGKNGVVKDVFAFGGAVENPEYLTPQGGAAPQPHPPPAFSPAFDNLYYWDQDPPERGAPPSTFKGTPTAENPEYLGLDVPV
Protocol: as §1

[3] = molecular target: T3, EGFR-L858R (Homo sapiens, UniProt P00533, L858R); settings: ATP at Km (9 µM); read-out: IC50, EGFR L858R mutant
T3 construct: purchased Carna Biosciences lot13CBS-0537B
T3 sequence (P00533 25-1210 L858R): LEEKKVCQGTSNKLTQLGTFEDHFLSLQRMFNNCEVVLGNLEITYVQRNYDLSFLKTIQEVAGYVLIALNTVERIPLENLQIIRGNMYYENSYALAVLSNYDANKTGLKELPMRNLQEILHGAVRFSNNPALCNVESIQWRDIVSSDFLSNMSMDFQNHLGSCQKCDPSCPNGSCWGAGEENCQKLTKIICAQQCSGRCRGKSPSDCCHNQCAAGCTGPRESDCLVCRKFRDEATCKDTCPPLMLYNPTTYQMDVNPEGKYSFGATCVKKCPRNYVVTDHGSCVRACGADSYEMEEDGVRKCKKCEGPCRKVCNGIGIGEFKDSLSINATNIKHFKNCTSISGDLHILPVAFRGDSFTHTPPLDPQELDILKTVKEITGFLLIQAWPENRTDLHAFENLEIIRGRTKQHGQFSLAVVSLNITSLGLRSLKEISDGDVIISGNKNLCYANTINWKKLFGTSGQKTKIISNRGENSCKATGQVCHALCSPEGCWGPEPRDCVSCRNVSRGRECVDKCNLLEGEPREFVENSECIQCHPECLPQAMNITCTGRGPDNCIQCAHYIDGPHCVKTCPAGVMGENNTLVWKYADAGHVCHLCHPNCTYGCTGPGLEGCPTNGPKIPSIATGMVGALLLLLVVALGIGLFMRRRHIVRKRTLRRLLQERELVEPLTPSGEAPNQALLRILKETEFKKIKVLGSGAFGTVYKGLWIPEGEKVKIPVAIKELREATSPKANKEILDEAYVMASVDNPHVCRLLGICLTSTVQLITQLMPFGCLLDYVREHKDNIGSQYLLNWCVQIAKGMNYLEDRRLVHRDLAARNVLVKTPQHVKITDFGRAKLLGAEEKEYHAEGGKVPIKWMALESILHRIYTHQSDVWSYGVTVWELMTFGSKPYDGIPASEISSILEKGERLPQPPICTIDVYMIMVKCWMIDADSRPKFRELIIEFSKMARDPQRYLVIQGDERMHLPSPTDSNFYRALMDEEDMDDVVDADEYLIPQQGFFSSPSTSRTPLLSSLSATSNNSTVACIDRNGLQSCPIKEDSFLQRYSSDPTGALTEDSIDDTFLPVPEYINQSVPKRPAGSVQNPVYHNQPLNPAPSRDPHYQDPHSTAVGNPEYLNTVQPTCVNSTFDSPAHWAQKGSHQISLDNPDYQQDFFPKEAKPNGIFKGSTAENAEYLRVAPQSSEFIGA
Protocol: as §1

[4] = molecular target: T4, EGFR-L858R/T790M (Homo sapiens, UniProt P00533, L858R/T790M); settings: ATP at Km (4 µM); read-out: IC50, EGFR L858R/T790M double mutant
T4 construct: purchased Carna Biosciences lot12CBS-0765B
T4 sequence (P00533 25-1210 T790M/L858R): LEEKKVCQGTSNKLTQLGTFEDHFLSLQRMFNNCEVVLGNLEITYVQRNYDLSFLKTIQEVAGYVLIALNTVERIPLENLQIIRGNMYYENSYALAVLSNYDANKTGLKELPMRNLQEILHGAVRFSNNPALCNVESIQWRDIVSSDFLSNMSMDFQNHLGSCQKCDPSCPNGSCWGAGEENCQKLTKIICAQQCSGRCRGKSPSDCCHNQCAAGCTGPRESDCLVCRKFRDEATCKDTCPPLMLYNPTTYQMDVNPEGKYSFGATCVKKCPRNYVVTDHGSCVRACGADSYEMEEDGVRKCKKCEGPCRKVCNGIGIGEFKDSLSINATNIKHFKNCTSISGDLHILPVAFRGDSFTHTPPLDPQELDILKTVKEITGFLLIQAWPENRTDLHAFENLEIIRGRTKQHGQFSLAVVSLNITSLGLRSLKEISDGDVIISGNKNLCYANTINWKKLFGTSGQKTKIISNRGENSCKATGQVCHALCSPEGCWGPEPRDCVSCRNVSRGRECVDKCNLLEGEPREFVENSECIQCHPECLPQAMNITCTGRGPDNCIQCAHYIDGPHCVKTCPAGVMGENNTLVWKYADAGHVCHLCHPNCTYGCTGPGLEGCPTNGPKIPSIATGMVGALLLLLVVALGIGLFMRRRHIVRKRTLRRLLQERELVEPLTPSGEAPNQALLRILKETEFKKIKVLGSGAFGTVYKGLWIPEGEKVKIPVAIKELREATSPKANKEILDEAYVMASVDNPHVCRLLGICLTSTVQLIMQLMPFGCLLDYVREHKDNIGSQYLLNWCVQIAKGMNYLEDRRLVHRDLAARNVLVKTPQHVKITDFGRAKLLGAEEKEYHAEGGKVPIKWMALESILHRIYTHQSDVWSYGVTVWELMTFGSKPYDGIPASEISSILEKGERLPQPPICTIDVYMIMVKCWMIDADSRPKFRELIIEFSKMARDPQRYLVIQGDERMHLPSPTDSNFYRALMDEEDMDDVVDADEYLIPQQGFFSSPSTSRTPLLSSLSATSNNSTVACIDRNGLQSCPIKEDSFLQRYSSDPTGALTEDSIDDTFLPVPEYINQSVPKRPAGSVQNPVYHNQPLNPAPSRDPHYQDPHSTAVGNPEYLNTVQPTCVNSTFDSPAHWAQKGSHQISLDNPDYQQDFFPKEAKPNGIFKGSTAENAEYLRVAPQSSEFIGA
Protocol: as §1

For `COC(=O)Cc1ccc(Oc2ncnc3sc4c(c23)CC[C@@H](C)C4)cc1` (racemic) [DS39984], the IC50 [1] was 324 ± 50 nM, the IC50 [2] was < 324 nM and 220 nM and the IC50 [3] was 2350 ± 397 nM. It also gave an IC50 [4] of over 10000 nM.
